The results in this text go back to publication PMC6770089, “Interaction Mechanism of Flavonoids and α-Glucosidase: Experimental and Molecular Modelling Studies” (Foods, 2019).

Converted amounts (≈) assume the structure as drawn.

One assay relates to T1, α-glucosidase.
T1 construct: gene MAL12; docking used PDB 3A4A (isomaltase IMA1), not the tested protein
The assay can be described thus: intrinsic fluorescence quenching, excitation […] nm. The format is binding, Saccharomyces cerevisiae. The note with it: 298 K; double-log; n = 0.9843.
In the case of `O=c1c(O)c(-c2cc(O)c(O)c(O)c2)oc2cc(O)cc(O)c12` [compound 1, myricetin], the “Ka” value is 77786 L/mol.

Staying with this assay, now noted: 298 K; double-log; n = 1.0572.
With `O=C1c2c(O)cc(O)cc2O[C@H](c2cc(O)c(O)c(O)c2)[C@H]1O` [compound 8, dihydromyricetin], the “Ka” value was determined as 57637 L/mol.

The target of the next assay is T1, α-glucosidase. Put plainly: pNP-G hydrolysis, absorbance […] nm. The format is biochemical, Saccharomyces cerevisiae. To be noted: pNP-G (1 mM stock, 1 mL added), 0.1 M phosphate pH 6.8, 37 °C, 10 min preincubation.
The term IC50 denotes the point on the concentration scale where inhibition reaches its midpoint. A lower IC50 goes with greater potency in that assay. `O=c1cc(-c2ccccc2)oc2cc(O)c(O)c(O)c12` [compound 4, baicalein] gave an IC50 of 6.75 µg/mL (≈ 25 µM).
The compound `O=C(/C=C/c1ccc(O)cc1)c1ccccc1` [compound 9, 4-hydroxychalcone] came in with an IC50 of 123.04 µg/mL (≈ 549 µM).
For the compound `O=C(/C=C/c1ccccc1)c1ccc(O)cc1` [compound 10, 4′-hydroxychalcone], the IC50 was 199.10 µg/mL (≈ 888 µM).
Same read-out and setting: under `O=c1cc(-c2ccc(O)c(O)c2)oc2cc(O)cc(O)c12` [compound 5, luteolin] stands 27.22 µg/mL (≈ 95.1 µM); under `O=c1cc(-c2ccccc2)oc2cc(O)cc(O)c12` [compound 7, chrysin], 70.07 µg/mL (≈ 276 µM); under `O=C1c2c(O)cc(O)cc2O[C@H](c2cc(O)c(O)c(O)c2)[C@H]1O` [compound 8, dihydromyricetin], 85.95 µg/mL (≈ 268 µM).
As to `O=C(/C=C/c1ccc(O)cc1)c1ccc(O)cc1O` [compound 6, isoliquiritigenin], the IC50 is 36.29 µg/mL (≈ 142 µM).
Consider `COc1ccc([C@@H]2CC(=O)c3c(O)cc(O[C@@H]4O[C@H](CO[C@@H]5O[C@@H](C)[C@H](O)[C@@H](O)[C@H]5O)[C@@H](O)[C@H](O)[C@H]4O)cc3O2)cc1O` [compound 13, hesperidin], for which the IC50 was over 500 µg/mL.
Consider `O=C(O)[C@H]1O[C@@H](Oc2cc3oc(-c4ccccc4)cc(=O)c3c(O)c2O)[C@H](O)[C@@H](O)[C@@H]1O` [compound 14, baicalin], for which the IC50 was over 500 µg/mL.
`O=c1c(O)c(-c2ccc(O)c(O)c2)oc2cc(O)ccc12` [compound 2, fisetin] had an IC50 of 5.50 µg/mL (≈ 19.2 µM).
On the same count and under the same terms, under `COc1ccc([C@@H]2CC(=O)c3c(O)cc(O)cc3O2)cc1O` [compound 11, hesperetin] stands 286.60 µg/mL (≈ 948 µM); under `O=c1c(O)c(-c2cc(O)c(O)c(O)c2)oc2cc(O)cc(O)c12` [compound 1, myricetin], 2.09 µg/mL (≈ 6.57 µM); under `C[C@@H]1O[C@@H](O[C@H]2[C@H](Oc3cc(O)c4c(c3)O[C@H](c3ccc(O)cc3)CC4=O)O[C@H](CO)[C@@H](O)[C@@H]2O)[C@H](O)[C@H](O)[C@H]1O` [compound 12, naringin], over 500 µg/mL.
